Results on one compound are retold here after publication PMC10382584, “Macrocyclization of linear molecules by deep learning to facilitate macrocyclic drug candidates discovery” (Nature Communications, 2023).

Some targets named below: LTK (Homo sapiens, UniProt P29376); DYRK1B (Homo sapiens, UniProt Q9Y463); ERBB3 (Homo sapiens, UniProt P21860); BRSK1 (Homo sapiens, UniProt Q8TDC3); DYRK1A (Homo sapiens, UniProt Q13627).
Common to all, as to experiment: biochemical
Design in all cases: DiscoveRx KINOMEscan competition binding, percent of DMSO control signal at 100 nM
What all share (details): read-out: Fig. 4a / Percent Control / Compound 1; percent of DMSO control, competition binding

Sequence of ERBB3 (P21860 whole entry): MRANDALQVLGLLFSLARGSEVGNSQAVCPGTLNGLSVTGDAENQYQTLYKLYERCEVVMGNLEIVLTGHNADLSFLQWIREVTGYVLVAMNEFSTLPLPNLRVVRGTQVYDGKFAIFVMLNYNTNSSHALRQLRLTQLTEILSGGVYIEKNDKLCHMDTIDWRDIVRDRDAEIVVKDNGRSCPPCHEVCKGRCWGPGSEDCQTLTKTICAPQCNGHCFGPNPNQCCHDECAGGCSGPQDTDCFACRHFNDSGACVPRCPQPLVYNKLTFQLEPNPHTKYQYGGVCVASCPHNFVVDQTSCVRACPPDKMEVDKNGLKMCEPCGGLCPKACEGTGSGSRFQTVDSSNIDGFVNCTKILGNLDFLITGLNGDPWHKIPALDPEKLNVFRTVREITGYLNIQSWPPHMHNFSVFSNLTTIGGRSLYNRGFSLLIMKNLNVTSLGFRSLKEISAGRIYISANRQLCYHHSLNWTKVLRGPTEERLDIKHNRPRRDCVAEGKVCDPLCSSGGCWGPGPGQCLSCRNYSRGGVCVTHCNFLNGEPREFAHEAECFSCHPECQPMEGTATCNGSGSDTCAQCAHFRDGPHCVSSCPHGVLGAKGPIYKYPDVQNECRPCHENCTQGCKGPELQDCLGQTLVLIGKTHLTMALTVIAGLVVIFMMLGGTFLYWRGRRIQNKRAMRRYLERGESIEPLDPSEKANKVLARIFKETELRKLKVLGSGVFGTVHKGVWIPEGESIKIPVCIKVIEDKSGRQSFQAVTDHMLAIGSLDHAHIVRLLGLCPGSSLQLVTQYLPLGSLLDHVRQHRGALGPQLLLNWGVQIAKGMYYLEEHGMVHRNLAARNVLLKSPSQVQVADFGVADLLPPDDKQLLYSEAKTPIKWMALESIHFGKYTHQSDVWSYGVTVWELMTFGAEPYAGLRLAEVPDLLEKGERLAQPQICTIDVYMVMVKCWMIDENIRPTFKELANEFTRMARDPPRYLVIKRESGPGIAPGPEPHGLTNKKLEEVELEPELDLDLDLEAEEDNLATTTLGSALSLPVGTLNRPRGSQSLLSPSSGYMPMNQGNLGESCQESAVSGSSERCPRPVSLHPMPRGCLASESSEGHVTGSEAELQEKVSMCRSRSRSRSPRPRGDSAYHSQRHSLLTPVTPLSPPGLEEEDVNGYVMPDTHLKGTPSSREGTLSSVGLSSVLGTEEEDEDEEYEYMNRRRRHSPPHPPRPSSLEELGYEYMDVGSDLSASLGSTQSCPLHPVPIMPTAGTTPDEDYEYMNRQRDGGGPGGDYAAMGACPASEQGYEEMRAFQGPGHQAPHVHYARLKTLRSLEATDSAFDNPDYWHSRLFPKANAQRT
Sequence of LTK (P29376 whole entry): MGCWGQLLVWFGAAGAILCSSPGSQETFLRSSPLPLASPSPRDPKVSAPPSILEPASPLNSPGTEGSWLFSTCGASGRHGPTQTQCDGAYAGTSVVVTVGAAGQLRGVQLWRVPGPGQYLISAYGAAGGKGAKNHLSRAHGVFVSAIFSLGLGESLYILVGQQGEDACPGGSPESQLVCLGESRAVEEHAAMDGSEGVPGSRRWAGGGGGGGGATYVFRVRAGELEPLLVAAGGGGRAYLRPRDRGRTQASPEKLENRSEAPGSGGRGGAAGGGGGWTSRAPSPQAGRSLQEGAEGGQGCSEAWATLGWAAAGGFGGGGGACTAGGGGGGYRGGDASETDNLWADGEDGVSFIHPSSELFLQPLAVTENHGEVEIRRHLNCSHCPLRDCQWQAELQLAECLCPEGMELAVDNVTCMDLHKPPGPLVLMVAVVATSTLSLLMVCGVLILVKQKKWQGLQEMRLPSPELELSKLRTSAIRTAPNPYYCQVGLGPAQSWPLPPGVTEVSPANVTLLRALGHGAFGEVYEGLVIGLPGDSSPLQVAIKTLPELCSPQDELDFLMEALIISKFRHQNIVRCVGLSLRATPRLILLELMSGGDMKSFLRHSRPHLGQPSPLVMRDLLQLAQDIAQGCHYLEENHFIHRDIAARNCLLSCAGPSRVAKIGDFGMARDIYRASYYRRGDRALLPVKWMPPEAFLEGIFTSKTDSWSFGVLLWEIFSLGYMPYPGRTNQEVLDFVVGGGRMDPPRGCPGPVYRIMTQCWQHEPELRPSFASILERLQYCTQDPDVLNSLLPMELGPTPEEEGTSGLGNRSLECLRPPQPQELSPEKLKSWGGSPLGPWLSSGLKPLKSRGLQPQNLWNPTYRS
Sequence of BRSK1 (Q8TDC3 whole entry): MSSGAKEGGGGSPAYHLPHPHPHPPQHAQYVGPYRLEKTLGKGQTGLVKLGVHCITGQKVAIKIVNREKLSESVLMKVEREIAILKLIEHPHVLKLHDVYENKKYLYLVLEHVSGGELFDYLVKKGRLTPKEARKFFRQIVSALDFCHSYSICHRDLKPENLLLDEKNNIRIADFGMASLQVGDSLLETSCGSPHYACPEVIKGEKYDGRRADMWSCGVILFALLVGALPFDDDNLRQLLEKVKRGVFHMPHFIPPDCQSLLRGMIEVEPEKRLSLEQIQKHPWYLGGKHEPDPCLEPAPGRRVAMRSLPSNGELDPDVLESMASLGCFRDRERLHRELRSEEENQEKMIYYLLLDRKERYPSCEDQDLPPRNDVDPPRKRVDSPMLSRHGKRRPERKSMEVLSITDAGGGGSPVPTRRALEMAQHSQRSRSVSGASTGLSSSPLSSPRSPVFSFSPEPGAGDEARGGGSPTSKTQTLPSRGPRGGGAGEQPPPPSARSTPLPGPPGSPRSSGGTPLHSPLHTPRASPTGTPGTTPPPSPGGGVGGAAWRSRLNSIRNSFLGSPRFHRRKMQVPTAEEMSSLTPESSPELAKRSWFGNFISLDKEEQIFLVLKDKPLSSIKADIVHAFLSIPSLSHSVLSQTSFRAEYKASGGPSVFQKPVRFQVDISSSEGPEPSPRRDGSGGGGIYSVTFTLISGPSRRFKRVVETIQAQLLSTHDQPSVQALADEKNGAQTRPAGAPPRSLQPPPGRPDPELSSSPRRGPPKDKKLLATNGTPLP
Sequence of DYRK1B (Q9Y463 whole entry): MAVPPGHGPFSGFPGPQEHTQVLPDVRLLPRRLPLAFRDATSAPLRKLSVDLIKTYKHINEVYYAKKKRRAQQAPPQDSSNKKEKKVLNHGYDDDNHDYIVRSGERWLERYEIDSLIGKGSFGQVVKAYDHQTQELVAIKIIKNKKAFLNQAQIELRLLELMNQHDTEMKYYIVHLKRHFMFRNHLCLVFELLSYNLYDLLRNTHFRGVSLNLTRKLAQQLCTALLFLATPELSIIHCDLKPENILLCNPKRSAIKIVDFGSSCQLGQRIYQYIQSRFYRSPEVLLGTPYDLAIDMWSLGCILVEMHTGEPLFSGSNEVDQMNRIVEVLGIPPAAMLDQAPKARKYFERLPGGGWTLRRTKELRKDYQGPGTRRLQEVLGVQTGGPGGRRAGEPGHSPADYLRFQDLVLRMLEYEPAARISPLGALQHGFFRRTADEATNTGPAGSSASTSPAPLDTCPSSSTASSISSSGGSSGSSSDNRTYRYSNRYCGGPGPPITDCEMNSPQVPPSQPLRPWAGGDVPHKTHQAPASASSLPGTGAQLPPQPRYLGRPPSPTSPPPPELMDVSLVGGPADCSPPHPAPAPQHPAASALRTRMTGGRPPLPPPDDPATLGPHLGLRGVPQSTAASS
Procedure for DYRK1B: (§1) The kinase selectivity profile was performed by using the DiscoveRx KINOMEscan platform. […] Test compounds were prepared as 40× stocks in 100% DMSO and directly diluted into the assay. The results were defined as a percentage of signal between the negative (DMSO, 100% control) and the positive (control compound, 0% control) control, which was calculated as follows: percent control = [(test compound signal − positive control signal)/(negative control signal − positive control signal)] × 100.
Procedure for LTK: as §1

As to `Cc1cnc2nc1Nc1cccc(c1)COCc1cc(ccc1OCCN1CCCC1)N2` [Compound 1], the remaining binding at 0.1 µM at LTK is 100%; at DYRK1B, 100%; on ERBB3 it was 100%; on BRSK1, 93%; on DYRK1A, 88%.
